A word on the IC50: it is the concentration that gives 50% inhibition. As usually defined, the EC50 is the concentration at which the effect is half-maximal. The AC50 is the concentration giving half of the maximal activity seen. In general, GI50 refers to the concentration giving 50% growth inhibition.

Among the targets are Cytochrome P450 3A4 (Homo sapiens, UniProt P08684); Cytochrome P450 2C9 (Homo sapiens, UniProt P11712); Cytochrome P450 2D6 (Homo sapiens, UniProt P10635).
Another data set concerns the target Nonstructural protein 1 (Influenza A virus, UniProt Q194T2). The class given is functional, Influenza A virus (A/California/07/2009(H1N1)).
A short description of data set [1]: cells. The class given is functional, cell-based.
A short description of data set [2]: cells. The class given is functional, cell-based. The source holds these as a separate data set.
Data set [3] has as its target Voltage-dependent T-type calcium channel subunit alpha-1H (Homo sapiens, UniProt O95180). The class given is functional.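 Note: channel activity triggered by adding a high calcium stimulation buffer.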
A short description of data set [4]: cells. The class given is functional.
The nature of data set [5]: HIV-1 AD8 envelope cell-cell fusion blockers – cherry-pick, dose response (AID 652062).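 Note: luciferase signal from cell-cell fusion driven by HIV-1 clade B AD8 Env; potency is for inhibitors of fusion seen as a drop in luminescence.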 The class given is functional, cell-based.
A short description of data set [6]: luciferase reporter signal suppression in cells – H4 neuroglioma cells, luminescence, dose response (AID 1990). The class given is functional, cell-based.
Data set [7] in a line: blockers of HIV-1 ZM109 envelope-driven cell-cell fusion – HeLa effector, CEM target cells, luciferase, cherry-pick, dose response (AID 652058).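 Note: luciferase signal from HIV-1 Env mediated cell-cell fusion of effector and target cells.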 The class given is functional, cell-based.
Data set [8] in a line: blockers of HIV-1 envelope-mediated cell-cell fusion – cherry-pick, dose response (AID 652057). The class given is functional, cell-based.
Data set [9] is described as follows: off-target signal loss in HeLa-CEM21 co-culture – HeLa F-luc CTL cells, cherry-picked, counter-screen for HIV-1 Env fusion inhibitor project, dose response (AID 652040).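 Note: potency for signal decrease marking cytotoxic or nonspecific inhibition.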 The class given is functional, cell-based. A general note: The purpose of a counterscreen is to sort out artefacts and off-target activity.
The nature of data set [10]: Luminescence Cell-Based Dose Response HTS to Identify Inhibitors of 5'UTR Stem-Loop Driven Prion Protein mRNA Translation in H4 Neuroglioblastoma Cells. [Related pubchem assays: 1827 (Project Summary), 1813 (Primary HTS)]. The class given is functional.
The nature of data set [11]: toxicity toward HepG2 liver cells – cell-based, plate reader, cherry-pick, antagonist series, cytotoxicity control, dose response (AID 743416). The class given is functional.
The nature of data set [12]: blockade of melanocortin 4 receptor signaling – cell-based, plate reader, cherry pick, counter-screen for LGR2 antagonist project, dose response (AID 743444).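 Note: transfected HEK 293 cells stimulated with alpha-MSH peptide; potency of inhibitors of the alpha-MSH evoked signal.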 The class given is functional.
The nature of data set [13]: blockers of bursicon-stimulated LGR2 cAMP reporter – cell-based, HEK293, CRE-luciferase reporter, cherry pick, set 2, dose response (AID 743343).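 Note: transfected cells were stimulated with diluted bursicon conditioned medium after compound addition.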 The class given is functional. (A reporter such as luciferase makes a cellular process visible.)
Data set [14] has as its target FAD-linked sulfhydryl oxidase ALR (Homo sapiens, UniProt P55789). Description: ALR-catalysed DTT oxidation blockers – biochemical, H2O2 detection, luminescence, cherry-pick, dose response (AID 493248).
Data set [15] deals with BJ. Description: cells. The class given is functional, cell-based. Conditions: Homo sapiens.
The subject of data set [16] is BJ. Description: BJ-TERT-LT-ST fibroblast viability loss – cell-based, RAS-independent, luminescence, dose response (AID 1935).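 Note: BJ fibroblasts immortalized with TERT plus LT and ST oncogenes.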 The class given is functional. The conditions noted are these: Homo sapiens.
In data set [17] the test system is BJ. Description: BJ-TERT fibroblast viability loss – cell-based, RAS-independent, luminescence, dose response (AID 1933). The class given is functional. The conditions noted are these: Homo sapiens.
The nature of data set [18]: DRD fibroblast viability loss – cell-based, non-viral oncogenic, luminescence, dose response (AID 1934). The conditions noted are these: Homo sapiens. The class given is functional.
Data set [19] is described as follows: Luminescence Cell-Based Dose Retest to Confirm Inhibitors of Cancer Stem Cells. [Related pubchem assays (depositor defined):AID2717, AID2721]. The class given is functional. The conditions noted are these: Homo sapiens.
In a further data set the target is Cytochrome P450 2C19 (Homo sapiens, UniProt P33261). The experiment in a line: Cytochrome panel assay with activity outcomes. Panel member name: p450-cyp2c19 Compounds with AC50 equal or less than 10 uM are considered active. The class given is functional. The conditions noted are these: read-out: AC50.
A further data set concerns H9c2. The experiment in a line: cells. The class given is functional, cell-based. Conditions: Rattus norvegicus, H9c2, Myocardium.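 Note: confirmatory concentration-response retest of ultra-high-throughput screening hits for modulation of myocardial damage; cell death induced by hydrogen peroxide oxidative stress; compound pretreatment for 60 min then peroxide exposure for 2 h; potency is for protecting the cells against peroxide damage rather than for killing them.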
Data set [20] is described as follows: A549 cell cytotoxicity, dose response, cytotoxicity control, plate reader, cherry-pick, antagonist series (AID 743412). The class given is functional, cell-based.
The next data set has as its target Paired box protein Pax-8 (Homo sapiens, UniProt Q06710). The experiment in a line: PAX8 transcriptional activity inhibition in RMG-I – RMG-I cells, luciferase, cherry-pick, dose response (AID 687027).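 Note: luciferase reporter driven by Pax8 target thyroperoxidase promoter measured by SteadyGlo luminescence.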 The class given is functional, cell-based.
The test system of the next data set is P388/ADR. Description: cells. The class given is functional. Conditions: Mus musculus.
For a further data set, the system named is SN12K1. The experiment in a line: cells. The class given is functional. The conditions noted are these: Homo sapiens.
The next data set concerns P388. The experiment in a line: cells. The class given is functional. Conditions: Mus musculus.

The source made the active and inactive calls.

Voltage-dependent T-type calcium channel subunit alpha-1H, sequence (O95180 whole entry): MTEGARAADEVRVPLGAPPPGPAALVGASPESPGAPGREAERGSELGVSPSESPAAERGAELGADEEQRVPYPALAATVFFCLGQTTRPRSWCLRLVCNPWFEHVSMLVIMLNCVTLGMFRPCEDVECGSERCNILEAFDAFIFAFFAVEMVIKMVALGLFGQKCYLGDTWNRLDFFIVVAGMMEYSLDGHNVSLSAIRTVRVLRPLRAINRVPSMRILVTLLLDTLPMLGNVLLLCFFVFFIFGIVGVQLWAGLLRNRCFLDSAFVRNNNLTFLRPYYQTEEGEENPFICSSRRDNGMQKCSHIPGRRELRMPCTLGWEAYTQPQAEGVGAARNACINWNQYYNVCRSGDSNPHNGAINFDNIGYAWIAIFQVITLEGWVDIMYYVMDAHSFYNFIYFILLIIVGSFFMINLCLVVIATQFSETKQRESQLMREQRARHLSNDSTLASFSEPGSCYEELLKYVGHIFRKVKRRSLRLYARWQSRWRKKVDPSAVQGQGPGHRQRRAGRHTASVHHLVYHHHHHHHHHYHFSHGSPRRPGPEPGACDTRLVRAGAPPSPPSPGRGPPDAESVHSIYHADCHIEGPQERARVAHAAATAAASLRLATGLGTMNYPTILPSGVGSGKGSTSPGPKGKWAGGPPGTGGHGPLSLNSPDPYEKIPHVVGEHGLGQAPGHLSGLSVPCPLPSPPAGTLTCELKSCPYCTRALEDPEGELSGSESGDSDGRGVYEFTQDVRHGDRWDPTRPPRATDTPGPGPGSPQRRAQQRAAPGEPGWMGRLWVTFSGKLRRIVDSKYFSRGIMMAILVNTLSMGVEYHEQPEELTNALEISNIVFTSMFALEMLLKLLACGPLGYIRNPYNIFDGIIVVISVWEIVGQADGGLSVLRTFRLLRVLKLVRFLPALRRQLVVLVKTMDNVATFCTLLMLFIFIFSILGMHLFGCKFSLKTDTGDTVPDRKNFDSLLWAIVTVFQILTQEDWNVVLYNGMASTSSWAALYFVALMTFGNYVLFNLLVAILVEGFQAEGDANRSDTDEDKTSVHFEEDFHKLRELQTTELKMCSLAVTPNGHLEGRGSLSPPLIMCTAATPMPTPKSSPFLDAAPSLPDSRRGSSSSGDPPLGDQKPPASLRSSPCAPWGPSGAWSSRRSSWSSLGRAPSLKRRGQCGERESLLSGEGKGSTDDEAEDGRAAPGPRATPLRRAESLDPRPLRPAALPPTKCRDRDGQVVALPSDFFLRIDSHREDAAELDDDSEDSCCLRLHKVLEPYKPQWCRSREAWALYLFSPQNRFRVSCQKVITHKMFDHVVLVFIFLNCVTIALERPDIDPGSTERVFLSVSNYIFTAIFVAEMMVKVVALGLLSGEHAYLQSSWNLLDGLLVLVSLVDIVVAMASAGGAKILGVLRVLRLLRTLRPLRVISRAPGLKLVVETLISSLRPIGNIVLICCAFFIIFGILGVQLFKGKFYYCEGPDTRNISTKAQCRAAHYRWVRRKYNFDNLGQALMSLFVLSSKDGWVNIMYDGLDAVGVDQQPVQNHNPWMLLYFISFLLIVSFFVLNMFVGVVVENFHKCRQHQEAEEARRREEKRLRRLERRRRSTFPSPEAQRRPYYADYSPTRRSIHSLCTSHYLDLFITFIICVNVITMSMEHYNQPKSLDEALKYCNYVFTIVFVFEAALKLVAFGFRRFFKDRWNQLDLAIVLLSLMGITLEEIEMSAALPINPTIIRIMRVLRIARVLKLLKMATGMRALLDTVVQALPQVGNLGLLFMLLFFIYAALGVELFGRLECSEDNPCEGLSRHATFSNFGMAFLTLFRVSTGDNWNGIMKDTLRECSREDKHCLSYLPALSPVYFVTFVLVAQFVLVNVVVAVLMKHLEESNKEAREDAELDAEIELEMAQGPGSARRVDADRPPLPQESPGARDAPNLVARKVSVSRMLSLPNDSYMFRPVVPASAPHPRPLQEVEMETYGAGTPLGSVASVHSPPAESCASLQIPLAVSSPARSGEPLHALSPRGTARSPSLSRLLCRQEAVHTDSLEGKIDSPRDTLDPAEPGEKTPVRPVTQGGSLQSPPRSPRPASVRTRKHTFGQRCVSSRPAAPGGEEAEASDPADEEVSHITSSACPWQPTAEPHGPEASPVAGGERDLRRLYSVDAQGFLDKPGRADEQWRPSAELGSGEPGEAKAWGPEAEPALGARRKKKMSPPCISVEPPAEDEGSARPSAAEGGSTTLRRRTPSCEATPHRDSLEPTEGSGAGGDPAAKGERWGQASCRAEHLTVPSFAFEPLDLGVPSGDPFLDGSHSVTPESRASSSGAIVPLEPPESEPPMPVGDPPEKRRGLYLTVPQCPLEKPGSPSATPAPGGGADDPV
Cytochrome P450 2C9, sequence (P11712 whole entry): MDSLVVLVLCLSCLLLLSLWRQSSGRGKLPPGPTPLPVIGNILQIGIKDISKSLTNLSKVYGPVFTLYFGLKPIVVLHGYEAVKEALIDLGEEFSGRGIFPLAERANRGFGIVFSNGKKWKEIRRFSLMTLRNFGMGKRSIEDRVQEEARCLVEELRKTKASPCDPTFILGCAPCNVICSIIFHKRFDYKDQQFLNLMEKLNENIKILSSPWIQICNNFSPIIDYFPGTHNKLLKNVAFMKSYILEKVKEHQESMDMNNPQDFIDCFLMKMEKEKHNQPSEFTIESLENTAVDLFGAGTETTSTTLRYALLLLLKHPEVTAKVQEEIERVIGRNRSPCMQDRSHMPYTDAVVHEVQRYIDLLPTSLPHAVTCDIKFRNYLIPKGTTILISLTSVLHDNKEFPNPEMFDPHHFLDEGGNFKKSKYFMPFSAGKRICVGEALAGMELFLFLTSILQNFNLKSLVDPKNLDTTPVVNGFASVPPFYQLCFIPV
Nonstructural protein 1, sequence (Q194T2 whole entry): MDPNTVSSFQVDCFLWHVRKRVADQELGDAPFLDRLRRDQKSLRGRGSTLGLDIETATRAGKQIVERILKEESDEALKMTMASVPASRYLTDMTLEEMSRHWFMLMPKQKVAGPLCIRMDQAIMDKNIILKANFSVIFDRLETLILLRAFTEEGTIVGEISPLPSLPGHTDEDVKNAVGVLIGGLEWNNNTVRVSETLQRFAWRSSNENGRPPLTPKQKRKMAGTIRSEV
FAD-linked sulfhydryl oxidase ALR, sequence (P55789 whole entry): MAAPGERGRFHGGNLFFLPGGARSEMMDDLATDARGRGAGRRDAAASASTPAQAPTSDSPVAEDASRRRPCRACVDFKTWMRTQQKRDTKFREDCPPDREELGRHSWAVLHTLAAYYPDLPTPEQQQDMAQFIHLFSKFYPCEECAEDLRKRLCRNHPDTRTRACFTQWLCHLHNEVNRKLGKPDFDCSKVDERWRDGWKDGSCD
Cytochrome P450 2C19, sequence (P33261 whole entry): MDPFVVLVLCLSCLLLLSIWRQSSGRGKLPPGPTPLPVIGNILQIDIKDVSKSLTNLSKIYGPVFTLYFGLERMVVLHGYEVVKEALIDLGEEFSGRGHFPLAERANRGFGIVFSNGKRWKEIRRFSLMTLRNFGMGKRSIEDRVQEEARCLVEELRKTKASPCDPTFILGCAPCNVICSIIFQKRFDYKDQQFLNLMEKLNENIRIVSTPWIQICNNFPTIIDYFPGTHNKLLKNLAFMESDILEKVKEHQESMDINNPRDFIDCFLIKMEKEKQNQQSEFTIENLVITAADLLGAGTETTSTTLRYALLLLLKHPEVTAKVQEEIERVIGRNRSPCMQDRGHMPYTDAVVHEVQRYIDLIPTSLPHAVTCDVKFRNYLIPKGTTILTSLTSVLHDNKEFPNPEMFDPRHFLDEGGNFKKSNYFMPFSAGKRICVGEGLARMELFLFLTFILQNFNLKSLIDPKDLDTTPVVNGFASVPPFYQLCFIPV
Paired box protein Pax-8, sequence (Q06710 whole entry): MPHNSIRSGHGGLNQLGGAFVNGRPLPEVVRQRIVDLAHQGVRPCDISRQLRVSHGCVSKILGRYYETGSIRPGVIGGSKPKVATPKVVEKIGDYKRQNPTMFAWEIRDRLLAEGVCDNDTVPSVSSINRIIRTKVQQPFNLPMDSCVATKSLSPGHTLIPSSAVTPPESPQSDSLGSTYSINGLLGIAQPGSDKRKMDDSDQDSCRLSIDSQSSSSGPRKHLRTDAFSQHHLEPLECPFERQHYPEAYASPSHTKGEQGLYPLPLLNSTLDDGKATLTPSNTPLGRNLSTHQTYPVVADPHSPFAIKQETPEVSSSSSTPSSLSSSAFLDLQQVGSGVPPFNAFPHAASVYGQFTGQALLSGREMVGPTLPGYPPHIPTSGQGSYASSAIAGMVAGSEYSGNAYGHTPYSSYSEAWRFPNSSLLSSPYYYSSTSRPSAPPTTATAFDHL
Cytochrome P450 3A4, sequence (P08684 whole entry): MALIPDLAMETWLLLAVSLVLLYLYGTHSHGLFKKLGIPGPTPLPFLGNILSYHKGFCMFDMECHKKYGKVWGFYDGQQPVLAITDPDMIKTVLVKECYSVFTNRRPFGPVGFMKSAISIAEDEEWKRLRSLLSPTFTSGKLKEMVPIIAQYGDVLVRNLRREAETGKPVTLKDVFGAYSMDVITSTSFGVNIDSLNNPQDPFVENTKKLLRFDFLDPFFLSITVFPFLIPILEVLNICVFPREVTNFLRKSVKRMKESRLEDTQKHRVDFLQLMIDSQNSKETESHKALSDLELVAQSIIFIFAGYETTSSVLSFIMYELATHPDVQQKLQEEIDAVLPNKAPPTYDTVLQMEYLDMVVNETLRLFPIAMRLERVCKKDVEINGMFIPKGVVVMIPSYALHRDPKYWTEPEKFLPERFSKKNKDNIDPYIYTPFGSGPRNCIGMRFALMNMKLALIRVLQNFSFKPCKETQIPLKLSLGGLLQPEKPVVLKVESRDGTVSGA

In the case of `O=S(=O)(c1ccc(NC(=S)NN=C2CCCCC2)cc1)N1CCOCC1`, the IC50 at Nonstructural protein 1 was 24.8 µM (active).
`Cc1[nH]c2ccccc2c1CN1CCc2ccccc2C1`: in the data set “cells [1]”, the EC50 was > 29.9 µM (inactive). In “cells [2]”, the IC50 was > 29.9 µM (inactive).
As for `Cc1ccc(-c2noc(CCC(=O)Nc3cccc(C#N)c3)n2)cc1`, the EC50 in data set [3] was 2.84 µM (active). Moreover, the IC50 in “cells [4]” is 19.9 µM (active).
As for `C=CCc1cc(C)ccc1OCC(O)CN1CCN(c2ccccc2)CC1` (stereo not given), in data set [3], the EC50 was 8.33 µM (active).
As for `COc1ccc(NC(=O)c2cc(CC(C)C)nc3ccccc23)cc1`, the AC50 in [5] is 1.11 µM (active); in data set [7], < 0.26 µM (active); in [8], 0.655 µM (active); in [9], 1.06 µM (active). In addition, the EC50 in data set [6] and in [10] was > 120 µM (not active) throughout.
As for `CC(NC1=NCCS1)c1ccccc1` (stereo not given), the EC50 in the data set “cells [1]” is > 29.9 µM (inactive). Further, the IC50 in the data set “cells [2]” was > 29.9 µM (inactive).
Consider `COc1ccc(Oc2ncc3nc(-c4cn(C)c5ccccc45)c(=O)n(C)c3n2)cc1`, for which the results for the AC50 at Cytochrome P450 3A4 and at Cytochrome P450 2C9 were 15.8 µM (inconclusive) and “inconclusive”, respectively.
With `Cc1ccccc1-n1nc2c(c1NC(=O)c1ccc(Br)o1)CSC2`, the EC50 in data set [3] was 5.29 µM (active).
As to `Cc1nc2cnc(N(C)C)nc2n(Cc2ccc(F)cc2)c1=O`, the AC50 entry at Cytochrome P450 2C9 is listed as “inconclusive”.
In the case of `COc1ccc(C(c2nnnn2Cc2ccc(F)cc2)N2CCN(c3ccccc3)CC2)cc1` (stereo not given), in [3], the EC50 was 2.66 µM (active).
Turning to `CN(C)c1ccc(C(=O)Nc2nc3c(s2)CCCC3)cc1`, the AC50 is 51.1 µM (active) in data set [11], 11.4 µM (active) in [12], 8.81 µM (active) in data set [13] and 0.188 µM (active) in [14].
For `Cc1ccc(S(=O)(=O)N(CC(=O)N2CCN(c3ccc(F)cc3)CC2)C2CCCCC2)cc1`, in data set [3], the EC50 was 4.33 µM (active).
On to `CCOc1ccccc1NC1=C(Cl)C(=O)N(Cc2ccccc2)C1=O`, for which the 50% effective concentration (EC50) (in the data set on BJ [15]; with BJ [16]; with BJ [17]; in [18]) was > 150 µM (not active) in each case.
Regarding `Clc1ccc(CSc2nnnn2-c2ccc3c(c2)OCO3)c(Cl)c1`, the EC50 in [3] is 9.79 µM (active). The AC50 in data set [19] is 13.1 µM (active).
Regarding `COc1ccccc1CNc1cc(-c2cccc(NS(C)(=O)=O)c2)ncn1`, the AC50 at Cytochrome P450 2C19 is 20 µM (inconclusive); on Cytochrome P450 2C9, “inconclusive”.
`CCC(=O)Nc1cccc(-c2nnc(-c3cccc(NC(=O)CC)c3)o2)c1`: the results for the AC50 at Cytochrome P450 2D6 and at Cytochrome P450 2C9 were 17.8 µM (inconclusive) and “inconclusive”, respectively. Further, the IC50 in the data set with H9c2 was > 79 µM (inactive).
For `CCc1nc(Sc2nnnn2-c2ccccc2)c2c3c(sc2n1)CCCC3`, the figures for the AC50 in [12] and in data set [13] were 5.14 µM (active) and 5.1 µM (active), respectively.
As for `Cc1nc2ncnn2c(N2CCCC(C(=O)Nc3ccc4c(c3)CCC4)C2)c1C` (stereo not given), the AC50 is 8.01 µM (active) in data set [5], 17.1 µM (active) in data set [7], 3.21 µM (active) in data set [8] and 3.66 µM (active) in data set [9].
Taken in the same sequence, the figures for `O=S(=O)(c1ccc(Cl)cc1)N1CCCN(c2nc3ccc(Cl)cc3s2)CC1` were 5.18 µM (active), 0.922 µM (active), 3.94 µM (active) and 4.14 µM (active).
Regarding `COCCOC(=O)c1[nH]c2c(c1C)C(=O)CC(c1cccs1)C2` (stereo not given), the EC50 in the data set on BJ [15] was 66.4 µM (active); with BJ [16] it was 3.8 µM (active); in the data set with BJ [17] it was 4.56 µM (active); in [18], 12.9 µM (active).
In the case of `CCOC(=O)[C@@H]1[C@H]2COc3cc(OC)ccc3[C@H]2N2C(=O)N(c3cccc(F)c3)C(=O)[C@@]12C`, the AC50 in data set [8] was 35.2 µM (active).
Take `c1ccc(COc2cccc(-c3cc4nc(NCCCn5ccnc5)ccn4n3)c2)cc1`: the AC50 in [11] is > 52 µM (inactive); in data set [20] it was 40 µM (active).
As for `CC(=O)Nc1ccc(S(=O)(=O)c2ccnc3cc(Cl)ccc23)cc1`, the AC50 was 26.9 µM (active) in [20], 66.3 µM (active) in data set [13] and 0.449 µM (active) at Paired box protein Pax-8.
Take `CN1C(C(=O)NCCc2cccs2)CC2Cn3c(nc4ccccc43)C21` (stereo not given): in “cells [1]”, the EC50 is > 29.9 µM (inactive). Besides, the IC50 in “cells [2]” was > 29.9 µM (inactive).
With `CCCC[S+]([O-])CC(CO)NC(=O)/C=C/c1c(C)[nH]c(=O)[nH]c1=O` (stereo not given), the GI50 is 1.5 µM (inactive) with P388/ADR, 6.01 µM (inactive) with SN12K1 and 1.58 µM (inactive) in the data set with P388.
With `N/C(=N\O)N/N=C\c1ccc(O)c(O)c1O`, the GI50 in the data set on P388/ADR is 8.65 µM (inactive); in the data set with SN12K1, 17.7 µM (inactive); in the data set with P388 it was 14.4 µM (inactive).
Taken in the same sequence, the figures for `S=c1sc2c(s1)SC(c1ccccc1)CS2` (stereo not given) were 44.6 µM (inactive), > 89.5 µM (inactive) and 9.86 µM (inactive).
Taken in the same sequence, the figures for `COc1cc(/N=N\c2cccc(S(=O)(=O)O)c2)ccc1/N=N\c1ccc(/C=C/c2ccc(-n3on3-c3ccc(/C=C/c4ccc(/N=N/c5ccc(/N=N\c6cccc(S(=O)(=O)O)c6)cc5OC)cc4S(=O)(=O)O)c(S(=O)(=O)O)c3)cc2S(=O)(=O)O)c(S(=O)(=O)O)c1` were > 100 µM (inactive), > 100 µM (inactive) and > 100 µM (inactive).
As to `COC(=O)C[C@H]1C=C[C@H](NC(=O)c2ccccn2)[C@@H](CO)O1`, the AC50 in data set [7] is 0.414 µM (active).
In the case of `COc1cc(C2c3cc4c(cc3[C@@H](Nc3ccc(Oc5ccccc5)cc3)C3COC(=O)[C@H]23)OCO4)cc(OC)c1O` (stereo not given in full), the GI50 is 0.407 µM (active) with P388/ADR, 0.935 µM (active) with SN12K1 and 0.0504 µM (active) in the data set with P388.
Regarding `CCOc1cccc(/C=N/N2C(=O)CSC2=S)c1O`, the IC50 at Nonstructural protein 1 was 1.83 µM (active).
Regarding `Cc1c2ccncc2c(C)c2c1[nH]c1ccc(Cl)cc12`, the GI50 in the data set with P388/ADR was 1.83 µM (inactive); in the data set on SN12K1 it was 2.94 µM (inactive); in the data set with P388 it was 1.63 µM (inactive).
The matching figures for `CC(CN1CC(=O)NC(=O)C1)N1CC(=O)NC(=O)C1` (stereo not given) [RAZOXANE]: 141 µM (inactive), 58.1 µM (inactive) and 1.85 µM (inactive).

The values above are taken from ChEMBL document CHEMBL1201862, “PubChem BioAssay data set” (2004).
